Assay results as given in PMC5218480 (PLoS ONE, 2017).

System: MV-4-11 cells
Experiment: Gene expression microarray analysis (Affymetrix PrimeView) and GSEA
Format: cell-based, human
Parameters: RFU PODN (11730768_x_at) / Fold change /veh PODN (11730768_x_at) / RFU LINC00158 (11744669_a_at) / Fold change /veh LINC00158 (11744669_a_at) / RFU DUSP10 (11751237_a_at) / Fold change /veh DUSP10 (11751237_a_at) / RFU ID3 (11757404_x_at) / Fold change /veh ID3 (11757404_x_at) / RFU PLEKHG5 (11737974_s_at) / Fold change /veh PLEKHG5 (11737974_s_at) / RFU LRRC4B (11730491_at) / Fold change /veh LRRC4B (11730491_at) / RFU GIMAP4 (11747438_a_at) / Fold change /veh GIMAP4 (11747438_a_at) / RFU KRT8 (11758183_x_at) / Fold change /veh KRT8 (11758183_x_at) / RFU CNN1 (11734310_a_at) / Fold change /veh CNN1 (11734310_a_at) / RFU VPS37D (11726825_at) / Fold change /veh VPS37D (11726825_at) / RFU C10orf10 (11716522_x_at) / Fold change /veh C10orf10 (11716522_x_at) / RFU KIR2DL2 /// KIR2DL4 /// KIR2DL5A /// KIR2DL5B /// KIR2DS1 /// KIR2DS2 /// KIR2DS3 /// KIR2DS4 /// KIR3DL3 /// KIR3DL3 /// KIR3DS1 (11738374_at) / Fold change /veh KIR2DL2 /// KIR2DL4 /// KIR2DL5A /// KIR2DL5B /// KIR2DS1 /// KIR2DS2 /// KIR2DS3 /// KIR2DS4 /// KIR3DL3 /// KIR3DL3 /// KIR3DS1 (11738374_at) / RFU C1QL1 (11718748_at) / Fold change /veh C1QL1 (11718748_at) / RFU TMPRSS4 (11747572_a_at) / Fold change /veh TMPRSS4 (11747572_a_at) / RFU HAMP (11756126_x_at) / Fold change /veh HAMP (11756126_x_at) / RFU RNFT2 (11725882_a_at) / Fold change /veh RNFT2 (11725882_a_at) / RFU NR4A2 (11747474_a_at) / Fold change /veh NR4A2 (11747474_a_at) / RFU ABCC12 (11746883_a_at) / Fold change /veh ABCC12 (11746883_a_at) / RFU TMEM136 (11760407_x_at) / Fold change /veh TMEM136 (11760407_x_at) / RFU CLDN22 /// WWC2 (11732394_at) / Fold change /veh CLDN22 /// WWC2 (11732394_at) / RFU HLA-DPB1 (11760878_x_at) / Fold change /veh HLA-DPB1 (11760878_x_at) / RFU SPINT1 (11716480_a_at) / Fold change /veh SPINT1 (11716480_a_at) / RFU GAP43 (11754022_s_at) / Fold change /veh GAP43 (11754022_s_at) / RFU A4GNT (11735810_at) / Fold change /veh A4GNT (11735810_at) / RFU PRB3 (11715151_x_at) / Fold change /veh PRB3 (11715151_x_at) / RFU TUBB4B (11761932_at) / Fold change /veh TUBB4B (11761932_at) / RFU CAPN14 (11732068_a_at) / Fold change /veh CAPN14 (11732068_a_at) / RFU TMCC2 (11721928_a_at) / Fold change /veh TMCC2 (11721928_a_at) / RFU IRGQ (11745062_a_at) / Fold change /veh IRGQ (11745062_a_at) / RFU FAM174B (11720279_a_at) / Fold change /veh FAM174B (11720279_a_at) / RFU TMPRSS4 (11748680_a_at) / Fold change /veh TMPRSS4 (11748680_a_at) / RFU FAM212B (11763350_a_at) / Fold change /veh FAM212B (11763350_a_at) / RFU PLEKHG5 (11743358_a_at) / Fold change /veh PLEKHG5 (11743358_a_at) / RFU ZSCAN30 (11745921_a_at) / Fold change /veh ZSCAN30 (11745921_a_at) / RFU CMKLR1 (11741424_a_at) / Fold change /veh CMKLR1 (11741424_a_at) / RFU LOC101060620 /// MAPK8IP1 (11723275_at) / Fold change /veh LOC101060620 /// MAPK8IP1 (11723275_at) / RFU SPTSSB (11747773_x_at) / Fold change /veh SPTSSB (11747773_x_at) / RFU PRSS12 (11739890_at) / Fold change /veh PRSS12 (11739890_at) / RFU BIN1 (11741810_x_at) / Fold change /veh BIN1 (11741810_x_at) / RFU WNT11 (11732464_a_at) / Fold change /veh WNT11 (11732464_a_at) / RFU C10orf10 (11716521_a_at) / Fold change /veh C10orf10 (11716521_a_at) / RFU C5orf56 (11738089_at) / Fold change /veh C5orf56 (11738089_at) / RFU CYB561 (11721691_x_at) / Fold change /veh CYB561 (11721691_x_at) / RFU ANKRD19P (11752326_a_at) / Fold change /veh ANKRD19P (11752326_a_at) / RFU OR2T12 /// OR2T33 /// OR2T8 (11738714_s_at) / Fold change /veh OR2T12 /// OR2T33 /// OR2T8 (11738714_s_at) / RFU VCAN (11748164_a_at) / Fold change /veh VCAN (11748164_a_at) / RFU JSRP1 (11732532_at) / Fold change /veh JSRP1 (11732532_at) / RFU KRTAP10-11 (11738290_x_at) / Fold change /veh KRTAP10-11 (11738290_x_at) / RFU MYO3A (11730013_a_at) / Fold change /veh MYO3A (11730013_a_at) / RFU EBF3 (11725865_a_at) / Fold change /veh EBF3 (11725865_a_at) / RFU CAMK2N1 (11719241_x_at) / Fold change /veh CAMK2N1 (11719241_x_at) / RFU C5orf56 (11738088_a_at) / Fold change /veh C5orf56 (11738088_a_at) / RFU OLFML3 (11715873_a_at) / Fold change /veh OLFML3 (11715873_a_at) / RFU LOC100653217 /// NTM (11731650_a_at) / Fold change /veh LOC100653217 /// NTM (11731650_a_at) / RFU MAPK11 (11762145_a_at) / Fold change /veh MAPK11 (11762145_a_at) / RFU FIZ1 (11724087_x_at) / Fold change /veh FIZ1 (11724087_x_at) / RFU OASL (11726364_x_at) / Fold change /veh OASL (11726364_x_at) / RFU SOX15 (11748057_x_at) / Fold change /veh SOX15 (11748057_x_at) / RFU CD79A (11719716_a_at) / Fold change /veh CD79A (11719716_a_at) / RFU HIST1H1D (11736915_at) / Fold change /veh HIST1H1D (11736915_at) / RFU CASKIN2 (11723855_a_at) / Fold change /veh CASKIN2 (11723855_a_at) / RFU LOC730098 (11760151_x_at) / Fold change /veh LOC730098 (11760151_x_at) / RFU OR4N2 (11742367_at) / Fold change /veh OR4N2 (11742367_at) / RFU PRRT2 (11749266_a_at) / Fold change /veh PRRT2 (11749266_a_at) / RFU SNX32 (11753110_a_at) / Fold change /veh SNX32 (11753110_a_at) / RFU CDHR5 (11726645_a_at) / Fold change /veh CDHR5 (11726645_a_at) / RFU RCAN1 (11760418_a_at) / Fold change /veh RCAN1 (11760418_a_at) / RFU FAM167A (11723789_a_at) / Fold change /veh FAM167A (11723789_a_at) / RFU FAM26E (11764081_at) / Fold change /veh FAM26E (11764081_at) / RFU ISYNA1 (11749810_s_at) / Fold change /veh ISYNA1 (11749810_s_at) / RFU ACY1 (11761880_at) / Fold change /veh ACY1 (11761880_at) / RFU 11764098_at / Fold change /veh 11764098_at / RFU SAMD14 (11745864_x_at) / Fold change /veh SAMD14 (11745864_x_at) / RFU NPB (11741838_a_at) / Fold change /veh NPB (11741838_a_at) / RFU TMPRSS6 (11731388_a_at) / Fold change /veh TMPRSS6 (11731388_a_at) / RFU KRTAP10-2 (11738614_at) / Fold change /veh KRTAP10-2 (11738614_at) / RFU ARHGAP8 /// PRR5-ARHGAP8 (11727945_x_at) / Fold change /veh ARHGAP8 /// PRR5-ARHGAP8 (11727945_x_at) / RFU KRTAP5-7 /// NADSYN1 (11734609_at) / Fold change /veh KRTAP5-7 /// NADSYN1 (11734609_at) / RFU RASL12 (11751679_a_at) / Fold change /veh RASL12 (11751679_a_at) / RFU CDKN2B (11736163_a_at) / Fold change /veh CDKN2B (11736163_a_at) / RFU PRF1 (11729649_at) / Fold change /veh PRF1 (11729649_at) / RFU, ZNF638 /// ZNF638-IT1 / Fold change vs veh, ZNF638 /// ZNF638-IT1 / RFU, PANK3 / Fold change vs veh, PANK3 / RFU, SH3YL1 / Fold change vs veh, SH3YL1 / RFU, ZEB2 / Fold change vs veh, ZEB2 / RFU, NRIP1 / Fold change vs veh, NRIP1 / RFU, PTTG1IP / Fold change vs veh, PTTG1IP / RFU, CAPN2 / Fold change vs veh, CAPN2 / RFU, MED14 / Fold change vs veh, MED14 / RFU, SNORA58 / Fold change vs veh, SNORA58 / RFU, C1orf63 / Fold change vs veh, C1orf63 / RFU, LRRFIP1 / Fold change vs veh, LRRFIP1 / RFU, NDUFAF7 / Fold change vs veh, NDUFAF7 / RFU, SLC12A2 / Fold change vs veh, SLC12A2 / RFU, IBTK / Fold change vs veh, IBTK / RFU, ESF1 / Fold change vs veh, ESF1 / Fold change vs veh, TMEM50B / RFU, TAOK1 / Fold change vs veh, TAOK1 / RFU, ACBD3 / Fold change vs veh, ACBD3 / RFU, TMA16 / Fold change vs veh, TMA16 / RFU, RWDD3 / Fold change vs veh, RWDD3 / RFU, BCAT1 / Fold change vs veh, BCAT1 / RFU, EDEM3 / Fold change vs veh, EDEM3 / RFU, TMEM33 / Fold change vs veh, TMEM33 / RFU, WDR75 / Fold change vs veh, WDR75 / RFU, AHCTF1 / Fold change vs veh, AHCTF1 / RFU, TFRC / Fold change vs veh, TFRC / RFU, ZDHHC17 / Fold change vs veh, ZDHHC17 / RFU, NOM1 / Fold change vs veh, NOM1 / RFU, ARL8B / Fold change vs veh, ARL8B / RFU, ZBTB11 / Fold change vs veh, ZBTB11 / RFU, TAMM41 / Fold change vs veh, TAMM41 / RFU, KIAA1704 /// LOC100996395 / Fold change vs veh, KIAA1704 /// LOC100996395 / RFU, ING1 / Fold change vs veh, ING1 / RFU, TRMT61B / Fold change vs veh, TRMT61B / RFU, FUBP3 / Fold change vs veh, FUBP3 / RFU, TP53 / Fold change vs veh, TP53 / RFU, TNKS2 / Fold change vs veh, TNKS2 / RFU, ZFP14 / Fold change vs veh, ZFP14 / RFU, ACTR2 / Fold change vs veh, ACTR2 / RFU, PPP3R1 / Fold change vs veh, PPP3R1 / RFU, PIK3R1 / Fold change vs veh, PIK3R1 / RFU, HNRNPA1 / Fold change vs veh, HNRNPA1 / RFU, RNF170 / Fold change vs veh, RNF170 / RFU, ZNF28 / Fold change vs veh, ZNF28 / RFU, RNGTT / Fold change vs veh, RNGTT / RFU, OGT / Fold change vs veh, OGT / RFU, BRD1 / Fold change vs veh, BRD1 / RFU, MARS / Fold change vs veh, MARS / RFU, ZNF655 / Fold change vs veh, ZNF655 / RFU, FAHD1 / Fold change vs veh, FAHD1 / RFU, BDP1 / Fold change vs veh, BDP1 / RFU, LRRCC1 / Fold change vs veh, LRRCC1 / RFU, ARID1A / Fold change vs veh, ARID1A / RFU, ZNF146 / Fold change vs veh, ZNF146 / RFU, ZNF330 / Fold change vs veh, ZNF330 / RFU, GPN3 / Fold change vs veh, GPN3 / RFU, C9orf123 / Fold change vs veh, C9orf123 / RFU, N4BP2L2 / Fold change vs veh, N4BP2L2 / RFU, ARFIP1 / Fold change vs veh, ARFIP1 / RFU, FAM179B / Fold change vs veh, FAM179B / RFU, BCL10 / Fold change vs veh, BCL10 / RFU, UHRF1BP1L / Fold change vs veh, UHRF1BP1L / RFU, BET1 / Fold change vs veh, BET1 / RFU, CNOT2 / Fold change vs veh, CNOT2 / RFU, ZNF268 / Fold change vs veh, ZNF268 / Fold change vs veh, ZNF507 / RFU, DGCR2 / Fold change vs veh, DGCR2 / RFU, WDSUB1 / Fold change vs veh, WDSUB1 / Fold change vs veh, HSP90B1 /// MIR3652 / RFU, ADSS / Fold change vs veh, ADSS / RFU, GK / Fold change vs veh, GK / RFU, ZNF148 / Fold change vs veh, ZNF148 / RFU, TAF9 / Fold change vs veh, TAF9 / RFU, SLC1A5 / Fold change vs veh, SLC1A5 / RFU, SLMO2 / Fold change vs veh, SLMO2 / RFU, ABCC4 / Fold change vs veh, ABCC4 / RFU, LOC101060439 /// RAP1B / Fold change vs veh, LOC101060439 /// RAP1B / RFU, RFX7 / Fold change vs veh, RFX7 / RFU, GTPBP10 / Fold change vs veh, GTPBP10 / RFU, CNEP1R1 / Fold change vs veh, CNEP1R1 / RFU, BIVM-ERCC5 /// ERCC5 / Fold change vs veh, BIVM-ERCC5 /// ERCC5 / RFU, ILF3 / Fold change vs veh, ILF3 / RFU 11762660_at / Fold change /veh 11762660_at / RFU VCAN (11757783_s_at) / Fold change /veh VCAN (11757783_s_at) / RFU DDX43 (11728927_at) / Fold change /veh DDX43 (11728927_at) / RFU KRT8 (11758188_x_at) / Fold change /veh KRT8 (11758188_x_at) / RFU NKD1 (11759106_at) / Fold change /veh NKD1 (11759106_at) / RFU SRD5A1 (11742802_a_at) / Fold change /veh SRD5A1 (11742802_a_at) / RFU TPSAB1 /// TPSB2 (11721975_s_at) / Fold change /veh TPSAB1 /// TPSB2 (11721975_s_at) / RFU GSTM3 (11746129_a_at) / Fold change /veh GSTM3 (11746129_a_at) / RFU IL23R (11737362_x_at) / Fold change /veh IL23R (11737362_x_at) / RFU TMEM51 (11727254_a_at) / Fold change /veh TMEM51 (11727254_a_at) / RFU PIWIL2 (11732686_x_at) / Fold change /veh PIWIL2 (11732686_x_at) / RFU ORM1 (11744905_x_at) / Fold change /veh ORM1 (11744905_x_at) / RFU CCDC152 (11743942_at) / Fold change /veh CCDC152 (11743942_at) / RFU ECM1 (11717891_a_at) / Fold change /veh ECM1 (11717891_a_at) / RFU IL23R (11748794_a_at) / Fold change /veh IL23R (11748794_a_at) / RFU TNFAIP8L3 (11732012_x_at) / Fold change /veh TNFAIP8L3 (11732012_x_at) / RFU MBOAT4 (11741988_at) / Fold change /veh MBOAT4 (11741988_at) / RFU 11764193_at / Fold change /veh 11764193_at / RFU TMEM53 (11763286_at) / Fold change /veh TMEM53 (11763286_at) / RFU MAGEB2 (11727129_at) / Fold change /veh MAGEB2 (11727129_at) / RFU TMEM200A (11744735_a_at) / Fold change /veh TMEM200A (11744735_a_at) / RFU CCDC152 (11751479_a_at) / Fold change /veh CCDC152 (11751479_a_at) / RFU FAM211A (11726209_a_at) / Fold change /veh FAM211A (11726209_a_at) / RFU RGS16 (11746705_a_at) / Fold change /veh RGS16 (11746705_a_at) / RFU VCAN (11755009_s_at) / Fold change /veh VCAN (11755009_s_at) / RFU RHOB (11743442_s_at) / Fold change /veh RHOB (11743442_s_at) / RFU RGS16 (11720943_a_at) / Fold change /veh RGS16 (11720943_a_at) / RFU RGS16 (11720944_at) / Fold change /veh RGS16 (11720944_at) / RFU, VPS4B / Fold change vs veh, VPS4B / RFU, CREB1 / Fold change vs veh, CREB1 / RFU, DNAJC13 / Fold change vs veh, DNAJC13 / RFU, GNAQ / Fold change vs veh, GNAQ / RFU, CDK5R1 / Fold change vs veh, CDK5R1 / RFU, ZRANB3 / Fold change vs veh, ZRANB3 / RFU, CUL4A / Fold change vs veh, CUL4A / RFU, CCNY / Fold change vs veh, CCNY / RFU, UFL1 / Fold change vs veh, UFL1 / RFU, COG3 / Fold change vs veh, COG3 / RFU, DIAPH2 / Fold change vs veh, DIAPH2 / RFU, SKA2 / Fold change vs veh, SKA2 / RFU, AFF3 / Fold change vs veh, AFF3 / RFU, LMF1 / Fold change vs veh, LMF1 / RFU, IPO11 / Fold change vs veh, IPO11 / RFU, DFFB / Fold change vs veh, DFFB / RFU, FOXP1 / Fold change vs veh, FOXP1 / RFU, CARD8 / Fold change vs veh, CARD8 / RFU, STRN3 / Fold change vs veh, STRN3 / RFU, ADK / Fold change vs veh, ADK / RFU, RASSF2 / Fold change vs veh, RASSF2 / RFU, WIPF1 / Fold change vs veh, WIPF1 / RFU, LARP1B / Fold change vs veh, LARP1B / RFU, RASA1 / Fold change vs veh, RASA1 / RFU, RB1 / Fold change vs veh, RB1 / RFU, PPFIA1 / Fold change vs veh, PPFIA1 / RFU, MAT2A / Fold change vs veh, MAT2A / RFU, CCT5 / Fold change vs veh, CCT5 / RFU, WDR92 / Fold change vs veh, WDR92 / RFU, CUX1 / Fold change vs veh, CUX1 / RFU, TTC7A / Fold change vs veh, TTC7A / RFU, TMEM135 / Fold change vs veh, TMEM135 / RFU, DEPTOR / Fold change vs veh, DEPTOR / RFU, CPM / Fold change vs veh, CPM / RFU, DNAJB6 / Fold change vs veh, DNAJB6 / RFU, CACNA2D3 / Fold change vs veh, CACNA2D3 / RFU, DTX4 / Fold change vs veh, DTX4 / RFU, TFCP2 / Fold change vs veh, TFCP2 / RFU, GMCL1 /// GMCL1P1 / Fold change vs veh, GMCL1 /// GMCL1P1 / RFU, AEBP2 / Fold change vs veh, AEBP2 / RFU, SNHG1 /// SNORD22 /// SNORD25 /// SNORD26 /// SNORD27 /// SNORD28 /// SNORD29 /// SNORD31 / Fold change vs veh, SNHG1 /// SNORD22 /// SNORD25 /// SNORD26 /// SNORD27 /// SNORD28 /// SNORD29 /// SNORD31 / Fold change (Aza/veh), C12orf56 (ProbeSet 11735607_a_at) / Fold change (ACY-1035/veh), C12orf56 (ProbeSet 11735607_a_at) / Fold change (Aza/veh), FGFR1OP (ProbeSet 11751329_s_at) / Fold change (ACY-1035/veh), FGFR1OP (ProbeSet 11751329_s_at) / Fold change (Aza/veh), VPS36 (ProbeSet 11739960_a_at) / Fold change (ACY-1035/veh), VPS36 (ProbeSet 11739960_a_at) / RFU SYPL1 (11715823_x_at) / Fold change /veh SYPL1 (11715823_x_at) / RFU IGFBP7 (11715501_s_at) / Fold change /veh IGFBP7 (11715501_s_at) / RFU REEP3 (11722064_at) / Fold change /veh REEP3 (11722064_at) / RFU IGLL1 (11728026_x_at) / Fold change /veh IGLL1 (11728026_x_at): dose or concentration left out as unconfirmed
Conditions: ProbeSet 11726661_s_at; LIST B

Nc1ccc(-c2cccs2)cc1NC(=O)c1ccc2c(c1)cc(C1CC1)n2CCN1CCOCC1 [ACY-1035]
Fold change vs veh, GPN3: 0.89
